Assay results taken from patent US20140017339A1, “MATERIALS AND METHODS FOR TREATING RADIATION POISONING” (priority 2010, published 2014).

Assays:
[1] = test system: irradiated mice (796 cGys, LD50); assay: 30-day survival after irradiation, murine HS-ARS model; type: in vivo, C57B1/6 mice; conditions: 30 days
Protocol: Male and female C57B1/6 mice were purchased from Jackson Laboratories at 10-12 weeks of age. Mice were housed in microisolator cages (5 mice per cage) with sterilized direct contact bedding (Alpha Dri). Animal holding rooms were maintained at 21±3° C. with 30 to 80% relative humidity, with at least 10 air changes per hour of 100% fresh air, and a 12-hour light/dark cycle. Mice were fed ad libitum with commercial rodent chow (Harlan 2018SXC) in cage hoppers and acidified (pH 2.0-3.0) water in sipper tube bottles. The Institutional Animal Care and Use Committee of IUSM approved all protocols.
Mice were placed in single chambers of a plexiglass irradiation pie (Braintree), with 15 mice per pie, alternating groups of males and females within the same pie. The mice in each group of mice, irradiated together in the same pie, were divided equally among all treatment groups to ensure that each group received the same irradiation exposure conditions. […]
Cohorts of 20-40 mice were irradiated with an LD50 dose from a ^137Cs source. […] Animals were monitored for morbidity and mortality twice/daily for 30 days and euthanized when moribund. Referring now to FIG. 2A, survival curves were analyzed with a log-rank test. […]
Moribund mice were scored for signs of early euthanasia based on three parameters: the severity of hunched posture, squinted/closed eyes, and decreased activity. Each criterion was scored on a scale of 1 to 3, with 3 being the most severe. Moribund mice with a score of 8 or 9 were euthanized and the date of death was recorded.
Irradiated mice with therapeutic exogenously provided amounts of PGE2 mitigated the damage to hematopoietic cells observed post-irradiation with dmPGE2 treatment, using a murine HS-ARS model developed by Dr. Orschell at IUSM. […] Animals were monitored for morbidity and mortality twice/daily for 30 days and euthanized when moribund. Survival curves were analyzed with a log-rank test.

[2] = test system: marrow HPC of irradiated mice; assay: Colony assays: total CFC (CFU-GM, BFU-E, CFU-GEMM) per femur after irradiation; type: in vivo, C57B1/6 mice
Protocol: After 30 days, analysis of total CFC(CFU-GM, BFU-E and CFU-GEMM) was performed in methylcellulose culture. Referring now to FIG. 2B, data are Mean±SEM from N=5 mice per group, each assayed individually.
Irradiated mice were identified by ear punches and treated with either a single subcutaneous dose of dmPGE2 (40 μg/mouse) or vehicle control at 6 hours post-irradiation (N=20 mice per group, evenly split male/female); 6 mg/kg meloxicam dosed once daily on days 2 through 5 post-irradiation or vehicle control (N=20 or 40 mice per group, respectively, evenly split male/female); or a single subcutaneous dose of CoCl2 (60 mg/kg) at 6 hours post-irradiation (N=20 mice per group, evenly split male/female). One mouse per treatment group was housed in each individual cage.
After 35 days, remaining irradiated mice were sacrificed, bone marrow acquired from femurs, and total CFC including CFU-GM, BFU-E and CFU-GEMM were enumerated in 1% methylcellulose/IMDM containing 30% HI-FBS, 1 U/ml rhEPO, 10 ng/ml rhGM-CSF and 50 ng/ml rmSCF as described (Broxmeyer et al., 2007; Fukuda et al., 2007). All cultures were established in triplicate from individual animals, incubated at 37° C., 5% CO2, 5% O2 in air for 7 days and colonies quantified by microscopy.
Referring now to FIG. 2B, after 30 days, analysis of total CFC(CFU-GM, BFU-E and CFU-GEMM) was performed in methylcellulose culture. Data are Mean±SEM from N=5 mice per group, each assayed individually.

HSC = conditions: WO 2010/054271, cited from earlier work
bone marrow HPC = assay: NSAID effect on bone marrow progenitor cell expansion in non-irradiated mice (CFU-GM); type: in vivo; conditions: NSAID twice daily for 4 days, assayed on day 5
Protocol: Mice were administered dual (Indomethacin, meloxicam), COX2 selective (Valdecoxib) or COX1 selective (SC560) inhibitors twice daily for 4 days. Referring now to FIG. 1, on day 5, mice were sacrificed, bone marrow from one femur isolated, total nucleated cells counted on a Hemavet 950FS and CFU-GM determined. Data are Mean±SEM for N=5 mice per group, each assayed individually.

SMILES: [Cl][Co][Cl] [CoCl2, cobalt chloride]
- percent survival ([1]; single subcutaneous dose 60 mg/kg at 6 hours post-irradiation, P=0.0011): 95%
- CFC in bone marrow ([2]; single subcutaneous dose 60 mg/kg at 6 hours post-irradiation, day 35): significantly increased CFC in bone marrow

SMILES: CCCCC[C@H](O)/C=C/[C@H]1[C@H](O)CC(=O)[C@@H]1C/C=C\CCCC(=O)O [PGE2, prostaglandin E2]
- homing/engraftment in bone marrow transplants (HSC): increased homing/engraftment
- apoptosis of HSC (HSC; through up-regulation of Survivin): decreased apoptosis

SMILES: CCCCC(C)(C)[C@H](O)/C=C/[C@H]1[C@H](O)CC(=O)[C@@H]1C/C=C\CCCC(=O)O [dmPGE2, 16,16 dimethyl prostaglandin E2]
- percent survival ([1]; single subcutaneous dose 40 μg/mouse at 6 hours post-irradiation, 796 cGys, control 50% survival, P=0.0011): 95%
- marrow HPC (total CFC per femur) versus control irradiated mice ([2]; single subcutaneous dose 40 μg/mouse at 6 hours post-irradiation, 796 cGys, day 35): significantly higher than control irradiated mice

SMILES: Cc1cnc(NC(=O)C2=C(O)c3ccccc3S(=O)(=O)N2C)s1 [meloxicam, 4-hydroxy-2-methyl-N-(5-methyl-2-thiazolyl)-2H-1,2-benzothiazine-3-carboxamide-1,1-dioxide]
- percent survival ([1]; 6 mg/kg once daily on days 2 through 5 post-irradiation, control 50% survival, P=0.034): 80%
- bone marrow CFC content versus control ([2]; 6 mg/kg once daily on days 2 through 5 post-irradiation, femurs 35 days post-irradiation): significantly increased bone marrow CFC content compared to control
- HPC expansion in bone marrow (bone marrow HPC): increase HPCs within the bone marrow
